Assay results from patent US20100267561A1, “HERBICIDAL PYRIDAZINONE DERIVATIVES” (priority 2007, published 2010).

Assays:
Format in all cases: in vivo
[1] = test system: wheat (Triticum aestivum); assay: Test A pre-/postemergence plant response
Outline: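 Ratings are visual, 0–100, where 100 means complete control and 0 no effect, taken roughly 10 days after treatment by comparison with untreated controls. Formulation: non-phytotoxic solvent mixture with surfactant.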

[2] = test system: Italian ryegrass (Lolium multiflorum); assay: Test B pre-/postemergence plant response
Outline: (§1)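 Preemergence and postemergence (plants 2-18 cm, 1- to 4-leaf stage) applications used test chemicals in a non-phytotoxic solvent with surfactant. Plants were held in a greenhouse 13 to 15 days, then rated visually against controls on a 0-100 scale (0 no effect, 100 complete control).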

[3] = test system: Russian thistle (Salsola iberica); assay: Test B pre-/postemergence plant response; settings: Preemergence
Outline: as §1

[4] = test system: cocklebur (Xanthium strumarium); assay: Test B pre-/postemergence plant response; settings: for Cocklebur plant response rating: 8 g ai/ha
Outline: as §1

[5] = test system: common ragweed (Ambrosia elation); assay: Test B pre-/postemergence plant response
Outline: as §1

[6] = test system: eastern black (E.B.) nightshade (Solanum ptycanthum); assay: Test B pre-/postemergence plant response; settings: Preemergence
Outline: as §1

[7] = test system: goosegrass (Eleusine indica); assay: Test B pre-/postemergence plant response
Outline: as §1

kochia (Kochia scoparia) = assay: Test B pre-/postemergence plant response
Outline: as §1

[8] = test system: pigweed (Amaranthus retroflexus); assay: Test B pre-/postemergence plant response
Outline: as §1

soybean (Glycine max) = assay: Test B pre-/postemergence plant response
Outline: as §1

[9] = test system: woolly cupgrass (Eriochloa villosa); assay: Test B pre-/postemergence plant response
Outline: as §1

[10] = test system: yellow nutsedge (Cyperus esculentus); assay: Test B pre-/postemergence plant response
Outline: as §1

[11] = Postemergence, 31 g ai/ha, 0 to 100 scale (0 no effect, 100 complete control)
[12] = Postemergence, 125 g ai/ha, 0 to 100 scale, 0 no effect, 100 complete control
[13] = Preemergence, 31 g ai/ha, 0 to 100 scale, 0 is no effect, 100 is complete control
[14] = Preemergence, 125 g ai/ha, 0 to 100 scale (0 no effect, 100 complete control)
[15] = 8 g ai/ha, postemergence, 0-100 scale
[16] = Postemergence, 16 g ai/ha, scale 0 to 100
[17] = Postemergence, 31 g ai/ha, scale 0 to 100, 0 no effect, 100 complete control
[18] = Postemergence, 62 g ai/ha, scale 0 to 100, 0 no effect, 100 complete control
[19] = Preemergence, 16 g ai/ha, scale 0 to 100 (0 no effect, 100 complete control)
[20] = Preemergence, 31 g ai/ha, 0 to 100 scale, 0 no effect, 100 complete control
[21] = Preemergence, 62 g ai/ha, scale 0 to 100
[22] = Preemergence, 8 g ai/ha, scale 0 to 100
[23] = 16 g ai/ha, scale 0 to 100 (0 no effect, 100 complete control)
[24] = 31 g ai/ha, 0 to 100 scale, 0 no effect, 100 complete control
[25] = 16 g ai/ha, postemergence, 0-100 scale
[26] = Postemergence, 31 g ai/ha, scale 0 to 100
[27] = Preemergence, 31 g ai/ha, scale 0 to 100 (0 no effect, 100 complete control)
[28] = Preemergence, 62 g ai/ha, 0 to 100 scale, 0 no effect, 100 complete control
[29] = Preemergence, 16 g ai/ha, scale 0 to 100
[30] = 31 g ai/ha, scale 0 to 100 (0 no effect, 100 complete control)
[31] = 62 g ai/ha, 0 to 100 scale, 0 no effect, 100 complete control

Cc1cc(-c2ccc(Cl)cc2)nn1-c1c(OC(=O)C(C)C)cnn(C)c1=O [Compound 34]
90: Plant response rating, Cupgrass, Woolly [9, 16] | Plant response rating, Cupgrass, Woolly [9, 19]
40: Plant response rating, Wheat [1, 11]
30: Plant response rating, Wheat [1, 13]
50: Goosegrass plant response rating [7, 15]
75: Cupgrass, Woolly plant response rating [9, 15]
0: Plant response rating, Russian Thistle [3, 23] | Plant response rating, Russian Thistle [3, 24] | Plant response rating, Russian Thistle ([3]; 62 g ai/ha, scale 0 to 100) | Russian Thistle plant response rating ([3]; 8 g ai/ha, scale 0 to 100) | Cocklebur plant response rating ([4]; postemergence, 0-100 scale) | Plant response rating, Cocklebur [4, 16] | Plant response rating, Cocklebur [4, 17] | Plant response rating, Cocklebur [4, 18] | Plant response rating, Cocklebur [4, 19] | Plant response rating, Cocklebur [4, 20] | Plant response rating, Cocklebur [4, 21] | Cocklebur plant response rating ([4]; Preemergence, scale 0 to 100) | Ragweed plant response rating [5, 15] | Plant response rating, Ragweed [5, 16] | Plant response rating, Ragweed [5, 17] | Plant response rating, Ragweed [5, 18] | Plant response rating, Ragweed [5, 19] | Plant response rating, Ragweed [5, 20] | Plant response rating, Ragweed [5, 21] | Ragweed plant response rating [5, 22] | Plant response rating, Nightshade, E. B. [6, 23] | Plant response rating, Nightshade, E. B. [6, 24] | Plant response rating, Nightshade, E. B. ([6]; 62 g ai/ha, scale 0 to 100) | Nightshade, E. B. plant response rating ([6]; 8 g ai/ha, scale 0 to 100) | Kochia plant response rating (kochia (Kochia scoparia); [15]) | Plant response rating, Kochia (kochia (Kochia scoparia); [16]) | Plant response rating, Kochia (kochia (Kochia scoparia); [17]) | Plant response rating, Kochia (kochia (Kochia scoparia); [18]) | Plant response rating, Kochia (kochia (Kochia scoparia); [19]) | Plant response rating, Kochia (kochia (Kochia scoparia); [20]) | Plant response rating, Kochia (kochia (Kochia scoparia); [21]) | Kochia plant response rating (kochia (Kochia scoparia); [22]) | Pigweed plant response rating [8, 15] | Plant response rating, Pigweed [8, 16] | Plant response rating, Pigweed [8, 17] | Plant response rating, Pigweed [8, 18] | Plant response rating, Pigweed [8, 19] | Plant response rating, Pigweed [8, 20] | Plant response rating, Pigweed [8, 21] | Pigweed plant response rating [8, 22] | Soybean plant response rating (soybean (Glycine max); [15]) | Plant response rating, Soybean (soybean (Glycine max); [16]) | Plant response rating, Soybean (soybean (Glycine max); [18]) | Plant response rating, Soybean (soybean (Glycine max); [19]) | Plant response rating, Soybean (soybean (Glycine max); [20]) | Plant response rating, Soybean (soybean (Glycine max); [21]) | Soybean plant response rating (soybean (Glycine max); [22]) | Nutsedge, Yellow plant response rating [10, 15] | Plant response rating, Nutsedge, Yellow [10, 16] | Plant response rating, Nutsedge, Yellow [10, 17] | Plant response rating, Nutsedge, Yellow [10, 18] | Plant response rating, Nutsedge, Yellow [10, 19] | Plant response rating, Nutsedge, Yellow [10, 20] | Plant response rating, Nutsedge, Yellow [10, 21] | Nutsedge, Yellow plant response rating [10, 22]
100: Plant response rating, Ryegrass, Italian [2, 18] | Plant response rating, Ryegrass, Italian [2, 19] | Plant response rating, Ryegrass, Italian [2, 20] | Plant response rating, Ryegrass, Italian [2, 21] | Ryegrass, Italian plant response rating [2, 22] | Plant response rating, Goosegrass [7, 21] | Plant response rating, Cupgrass, Woolly [9, 17] | Plant response rating, Cupgrass, Woolly [9, 18]
80: Plant response rating, Goosegrass [7, 18]
60: Plant response rating, Wheat [1, 12]
55: Plant response rating, Goosegrass [7, 16] | Goosegrass plant response rating [7, 22] | Cupgrass, Woolly plant response rating [9, 22]
85: Plant response rating, Ryegrass, Italian [2, 16] | Plant response rating, Goosegrass [7, 19]
70: Plant response rating, Wheat [1, 14] | Ryegrass, Italian plant response rating [2, 15] | Plant response rating, Goosegrass [7, 17]
98: Plant response rating, Goosegrass [7, 20]
95: Plant response rating, Ryegrass, Italian [2, 17] | Plant response rating, Cupgrass, Woolly [9, 20] | Plant response rating, Cupgrass, Woolly [9, 21]

Cc1cc(-c2ccc(Cl)cc2)nn1-c1c(OC(=S)N(C)C)cnn(C)c1=O [Compound 69]
100: Plant response rating, Ryegrass, Italian [2, 18] | Plant response rating, Ryegrass, Italian [2, 28] | Plant response rating, Ragweed [5, 27] | Plant response rating, Ragweed [5, 28] | Plant response rating, Cupgrass, Woolly [9, 18]
95: Plant response rating, Kochia (kochia (Kochia scoparia); [26]) | Plant response rating, Cupgrass, Woolly [9, 26]
10: Ryegrass, Italian plant response rating [2, 15]
30: Plant response rating, Wheat [1, 12]
85: Plant response rating, Cupgrass, Woolly [9, 28]
20: Ryegrass, Italian plant response rating [2, 29] | Plant response rating, Soybean (soybean (Glycine max); [18]) | Cupgrass, Woolly plant response rating [9, 15]
98: Plant response rating, Ryegrass, Italian [2, 26] | Ragweed plant response rating [5, 29] | Plant response rating, Kochia (kochia (Kochia scoparia); [18])
60: Plant response rating, Ryegrass, Italian [2, 27] | Goosegrass plant response rating [7, 15]
0: Plant response rating, Wheat [1, 11] | Plant response rating, Wheat [1, 13] | Plant response rating, Wheat [1, 14] | Ryegrass, Italian plant response rating [2, 22] | Plant response rating, Russian Thistle [3, 30] | Plant response rating, Russian Thistle [3, 31] | Russian Thistle plant response rating ([3]; 8 g ai/ha, scale 0 to 100) | Russian Thistle plant response rating ([3]; 16 g ai/ha, scale 0 to 100) | Cocklebur plant response rating ([4]; postemergence, 0-100 scale) | Plant response rating, Cocklebur [4, 16] | Plant response rating, Cocklebur [4, 26] | Plant response rating, Cocklebur [4, 18] | Plant response rating, Cocklebur [4, 19] | Plant response rating, Cocklebur [4, 27] | Plant response rating, Cocklebur [4, 28] | Cocklebur plant response rating ([4]; Preemergence, scale 0 to 100) | Ragweed plant response rating [5, 15] | Ragweed plant response rating [5, 25] | Plant response rating, Ragweed [5, 26] | Plant response rating, Ragweed [5, 18] | Ragweed plant response rating [5, 22] | Plant response rating, Nightshade, E. B. [6, 30] | Plant response rating, Nightshade, E. B. [6, 31] | Nightshade, E. B. plant response rating ([6]; 8 g ai/ha, scale 0 to 100) | Nightshade, E. B. plant response rating ([6]; 16 g ai/ha, scale 0 to 100) | Plant response rating, Goosegrass [7, 27] | Plant response rating, Goosegrass [7, 28] | Goosegrass plant response rating [7, 22] | Goosegrass plant response rating [7, 29] | Kochia plant response rating (kochia (Kochia scoparia); [15]) | Kochia plant response rating (kochia (Kochia scoparia); [25]) | Pigweed plant response rating [8, 15] | Pigweed plant response rating [8, 25] | Plant response rating, Pigweed [8, 26] | Plant response rating, Pigweed [8, 18] | Plant response rating, Pigweed [8, 27] | Plant response rating, Pigweed [8, 28] | Pigweed plant response rating [8, 22] | Pigweed plant response rating [8, 29] | Soybean plant response rating (soybean (Glycine max); [15]) | Soybean plant response rating (soybean (Glycine max); [25]) | Plant response rating, Soybean (soybean (Glycine max); [26]) | Plant response rating, Cupgrass, Woolly [9, 27] | Cupgrass, Woolly plant response rating [9, 22] | Cupgrass, Woolly plant response rating [9, 29] | Nutsedge, Yellow plant response rating [10, 15] | Nutsedge, Yellow plant response rating [10, 25] | Plant response rating, Nutsedge, Yellow [10, 26] | Plant response rating, Nutsedge, Yellow [10, 18] | Plant response rating, Nutsedge, Yellow [10, 27] | Plant response rating, Nutsedge, Yellow [10, 28] | Nutsedge, Yellow plant response rating [10, 22] | Nutsedge, Yellow plant response rating [10, 29]
75: Plant response rating, Goosegrass [7, 26]
90: Plant response rating, Goosegrass [7, 18] | Plant response rating, Cupgrass, Woolly [9, 16]
70: Goosegrass plant response rating [7, 25]
55: Ryegrass, Italian plant response rating [2, 25]
